Experimental data taken from patent US9364457B2, “Method for manufacturing composition for lowering blood lipid and elevating high-density lipoprotein” (SunWay Biotech Co., Ltd., priority 2011, dated 2016).

Key:
[1] = system: cholesterol biosynthesis; assay: Cell experiment on inhibition of cholesterol biosynthesis; assay type: cell-based; conditions: cells treated with the same concentration, 100 ppb
Description: In order to compare the inhibitory effect of cholesterol biosynthesis by monascin, ankaflavin and monacolin K, the present invention applies a cell experiment and treats cells with monascin, ankaflavin and monacolin K with the same concentration (100 ppb) for researching the influence of these ingredients on the cholesterol biosynthesis.

[2] = system: hamsters feed with high cholesterol diet; assay: Cholesterol parameters in blood of hamsters fed high cholesterol diet; assay type: in vivo; conditions: ratio of LDL-C to HDL-C, hamsters on high cholesterol diet, 8 weeks
Experimental: Additionally, a composition containing monacolin K is utilized as a comparison group, which is called as MK for abbreviation.
Firstly, the experiment utilizes hamsters feed with high cholesterol diet as experimental animals, which are then feed with MS, AF, MS+AF, and MK for 8 weeks, and then each of cholesterol parameters in blood of the hamsters are analyzed. The cholesterol parameters include total cholesterol (TC), triglyceride (TG), high density lipoprotein cholesterol (HDL-C), low density lipoprotein cholesterol (LDL-C), ratio of LDL-C to HDL-C, and malondialdehyde (MDA). […] Additionally, a normal diet group is referred to as NOR, and a high cholesterol diet group is referred to as HC.

[3] = system: lipid plaque on arterial vascular walls in the thoracic cavity; assay: Lipid plaque staining in arteries of high cholesterol diet animals; assay type: in vivo, hamsters; conditions: high cholesterol diet for eight weeks, human-equivalent per day: MK 2.89 mg, MS 9.82 mg, AF 1.43 mg
Experimental: Firstly, the experiment utilizes hamsters feed with high cholesterol diet as experimental animals, which are then feed with MS, AF, MS+AF, and MK for 8 weeks, and then each of cholesterol parameters in blood of the hamsters are analyzed. The cholesterol parameters include total cholesterol (TC), triglyceride (TG), high density lipoprotein cholesterol (HDL-C), low density lipoprotein cholesterol (LDL-C), ratio of LDL-C to HDL-C, and malondialdehyde (MDA). The amount of the MK taken by the experimental animals is equivalent to 2.89 mg taken by an adult human per day. Additionally, a normal diet group is referred to as NOR, and a high cholesterol diet group is referred to as HC.
Another important indicator for evaluating atherosclerosis is the analysis of lipid plaque staining in arteries, and the results of lipid plaque staining can indicate that whether lipid plaque deposits on arterial vascular walls. Large amounts of lipid with over-oxidation can cause bulk deposition of foam cells, and then the vascular walls lose elasticity and large amounts of lipid plaque are deposited, so as to lead to atherosclerosis. Referring to FIG. 11, which is a diagram of quantitative results of the lipid plaque staining experiment.

CC[C@H](C)C(=O)O[C@H]1C[C@@H](C)C=C2C=C[C@H](C)[C@H](CC[C@@H]3C[C@@H](O)CC(=O)O3)[C@H]21 [MK, monacolin K]
inhibition of cholesterol biosynthesis (FIG. 12) [1]: weakest effect | LDL/HDL [2]: 0.489 | amount of lipid plaque on arterial vascular walls (lipid plaque staining, FIG. 11) [3]: can lower the amount of lipid plaque
